In patent US8735584B2 (Merck Patent GmbH, priority 2008, dated 2014) one finds IC50 data, which are given here for 33 molecules.

Broadly, the IC50 is the concentration that inhibits the measured activity by half.

This test addresses T1, GST-Aurora A (Homo sapiens, UniProt O14965).
T1 construct: N-terminal GST fusion with full length Aurora A (1-403 amino acids); purchased Carna Biosciences 05-101
T1 sequence (O14965 1-403): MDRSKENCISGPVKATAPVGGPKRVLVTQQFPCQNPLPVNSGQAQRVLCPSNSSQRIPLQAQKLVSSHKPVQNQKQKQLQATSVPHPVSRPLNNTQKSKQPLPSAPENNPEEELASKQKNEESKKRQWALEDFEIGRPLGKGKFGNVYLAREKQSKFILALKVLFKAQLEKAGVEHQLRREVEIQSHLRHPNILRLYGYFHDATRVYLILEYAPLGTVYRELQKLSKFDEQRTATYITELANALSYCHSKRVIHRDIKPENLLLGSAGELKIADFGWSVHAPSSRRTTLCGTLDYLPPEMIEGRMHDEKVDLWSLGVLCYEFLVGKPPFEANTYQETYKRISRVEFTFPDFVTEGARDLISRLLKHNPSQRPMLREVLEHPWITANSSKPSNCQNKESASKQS
Briefly: Aurora A IC50, Caliper LC3000 mobility shift assay. Type of test: biochemical. The conditions noted are these: LC3000 method; 15 uM ATP (the KM value); read-out: Aurora Kinase A Activity (IC50). In outline: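 GST-tagged full-length Aurora A (0.067 ng/ul) with 15 uM ATP (KM) and 1 uM FITC-LRRASLG peptide in 100 mM HEPES pH 7.5, 1 mM MgCl2, 1 mM DTT, Brij-35; 90 min at 25 C, EDTA stop. Off-chip mobility shift read of substrate-to-product conversion; IC50 from sigmoidal dose-response.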

A value given as a limit tells only on which side of the number the result lay.

Turning to `O=C(Nc1ccc(Nc2ccnc3[nH]c(=O)c4c(C(=O)O)cccc4c23)cc1)c1ccc(F)cc1C(F)(F)F` [Compound 439, 1-[4-(4-Fluoro-2-trifluoromethyl-benzoylamino)-phenylamino)-6-oxo-5,6-dihydro-benzo[c][1,8]naphthyridin-7-carboxylic acid], the IC50 is below 11 nM.

As to `CN(C)CCNC(=O)c1cccc2c1c(=O)[nH]c1nccc(Nc3ccc(NC(=O)c4ccc(F)cc4C(F)(F)F)cc3)c12` [Compound 440, 1-[4-(4-Fluoro-2-trifluoromethyl-benzoylamino)-phenylamino)-6-oxo-5,6-dihydro-benzo[c][1,8]naphthyridin-7-carboxylic acid 2-dimethylamino-ethyl amide], the half-maximal inhibitory concentration (IC50) was below 11 nM.

Take `CN(C)CCCNC(=O)c1cccc2c1c(=O)[nH]c1nccc(Nc3ccc(NC(=O)c4ccc(F)cc4C(F)(F)F)cc3)c12` [Compound 441]: the half-inhibitory concentration (IC50) is below 11 nM.

On to `O=C(Nc1ccc(Nc2ccnc3[nH]c(=O)c4c(C(=O)NCCN5CCOCC5)cccc4c23)cc1)c1ccc(F)cc1C(F)(F)F` [Compound 442, 1-[4-(4-Fluoro-2-trifluoromethyl-benzoylamino)-phenylamino]-6-oxo-5,6-dihydro-benzo[c][1,8]naphthyridine-7-carboxylic acid (2-morpholin-4-yl-ethyl)-amide], for which the concentration for half-maximal inhibition (IC50) was below 11 nM.

As to `O=C(Nc1ccc(Nc2ccnc3[nH]c(=O)c4c(C(=O)NCCCN5CCOCC5)cccc4c23)cc1)c1ccc(F)cc1C(F)(F)F` [Compound 443, 1-[4-(4-Fluoro-2-trifluoromethyl-benzoylamino)-phenylamino)-6-oxo-5,6-dihydro-benzo[c][1,8]naphthyridin-7-carboxylic acid 3-morpholin-4-yl-propyl amide], the IC50 is below 11 nM.

`O=C(Nc1ccc(Nc2ccnc3[nH]c(=O)c4c(C(=O)NCCO)cccc4c23)cc1)c1ccc(F)cc1C(F)(F)F` [Compound 444, 1-[4-(4-Fluoro-2-trifluoromethyl-benzoylamino)-phenylamino)-6-oxo-5,6-dihydro-benzo[c][1,8]naphthyridin-7-carboxylic acid 2-hydroxy ethyl amide]: the IC50 is below 11 nM.

In the case of `O=C(Nc1ccc(Nc2ccnc3[nH]c(=O)c4c(O)cccc4c23)cc1)c1ccc(F)cc1C(F)(F)F` [Compound 445, 4-Fluoro-N-[4-(7-hydroxy-6-oxo-5,6-dihydro-benzo[c][1,8]naphthyridin-1-ylamino)-phenyl]-2-trifluoromethyl-benzamide], the IC50 was 11 to 100 nM.

Take `O=C(Nc1ccc(Nc2ccnc3[nH]c(=O)c4c(O)cccc4c23)cc1)c1ccccc1` [Compound 446, N-[4-(7-Hydroxy-6-oxo-5,6-dihydro-benzo[c][1,8]naphthyridin-1-ylamino)-phenyl]-benzamide]: the IC50 was 11 to 100 nM.

Consider `O=C(Nc1ccc(Nc2ccnc3[nH]c(=O)c4c(OCCN5CCOCC5)cccc4c23)cc1)c1ccccc1` [Compound 447], for which the IC50 was in the range of 11 to 100 nM.

Turning to `CCN(Cc1ccccc1)c1ccc2c(=O)[nH]c3ncccc3c2c1` [Compound 449, 9-(Benzyl(ethyl)amino)benzo[c][1,8]naphthyridin-6(5H)-one], the IC50 is above 100 nM.

For `O=c1[nH]c2ncccc2c2cc(NCc3ccc(Cl)cc3)ccc12` [Compound 452, 9-(4-Chlorobenzylamino)benzo[c][1,8]naphthyridin-6(5H)-one], the IC50 is above 100 nM.

In the case of `CCOC(=O)CCCNc1ccc2c(=O)[nH]c3ncccc3c2c1` [Compound 460, Ethyl 4-(6-oxo-5,6-dihydrobenzo[c][1,8]naphthyridin-9-ylamino)butanoate], the concentration for half-maximal inhibition (IC50) is above 100 nM.

Consider `O=c1[nH]c2ncccc2c2cc(NCc3c(F)cccc3C(F)(F)F)ccc12` [Compound 461, 9-(2-Fluoro-6-(trifluoromethyl)benzylamino)benzo[c][1,8]naphthyridin-6(5H)-one], for which the IC50 is above 100 nM.

Regarding `N#Cc1ccccc1CNc1ccc2c(=O)[nH]c3ncccc3c2c1` [Compound 462, 2-((6-oxo-5,6-dihydrobenzo[c][1,8]naphthyridin-9-ylamino)methyl)benzonitrile], the IC50 is above 100 nM.

Turning to `N#Cc1cccc(CNc2ccc3c(=O)[nH]c4ncccc4c3c2)c1` [Compound 463, 3-((6-Oxo-5,6-dihydrobenzo[c][1,8]naphthyridin-9-ylamino)methyl)benzonitrile], the IC50 is above 100 nM.

In the case of `O=c1[nH]c2ncccc2c2cc(NCc3ccc(F)cc3C(F)(F)F)ccc12` [Compound 464, 9-(4-Fluoro-2-(trifluoromethyl)benzylamino)benzo[c][1,8]naphthyridin-6(5H)-one], the IC50 is above 100 nM.

For the molecule `O=c1[nH]c2ncccc2c2cc(NCc3cccc([N+](=O)[O-])c3)ccc12` [Compound 465, 9-(3-Nitrobenzylamino)benzo[c][1,8]naphthyridin-6(5H)-one], the IC50 is above 100 nM.

With `O=c1[nH]c2ncccc2c2cc(NCc3ccccc3[N+](=O)[O-])ccc12` [Compound 466, 9-(2-Nitrobenzylamino)benzo[c][1,8]naphthyridin-6(5H)-one], the IC50 was above 100 nM.

Take `O=c1[nH]c2ncccc2c2cc(NCc3cc(C(F)(F)F)ccc3C(F)(F)F)ccc12` [Compound 468, 9-(2,5-Bis(trifluoromethyl)benzylamino)benzo[c][1,8]naphthyridin-6(5H)-one]: the IC50 was above 100 nM.

Regarding `O=c1[nH]c2ncccc2c2cc(NCc3ccccc3Br)ccc12` [Compound 469, 9-(2-Bromobenzylamino)benzo[c][1,8]naphthyridin-6(5H)-one], the IC50 lay within 11 to 100 nM.

As to `O=c1[nH]c2ncccc2c2cc(NCc3ccccc3Cl)ccc12` [Compound 470, 9-(2-Chlorobenzylamino)benzo[c][1,8]naphthyridin-6(5H)-one], the IC50 fell in the range of 11 to 100 nM.

For the molecule `O=c1[nH]c2ncccc2c2cc(NCc3c(F)cccc3Cl)ccc12` [Compound 471, 9-(2-Chloro-6-fluorobenzylamino)benzo[c][1,8]naphthyridin-6(5H)-one], the IC50 is above 100 nM.

Consider `CN1CCCC1CCNc1ccc2c(=O)[nH]c3ncccc3c2c1` (stereo not drawn) [Compound 475, 9-(2-(1-Methylpyrrolidin-2-yl)ethylamino)benzo[c][1,8]naphthyridin-6(5H)-one], for which the IC50 is above 100 nM.

Turning to `O=c1[nH]c2ncccc2c2cc(NCc3ccc4c(c3)OCO4)ccc12` [Compound 476, 9-(Benzo[d][1,3]dioxol-5-ylmethylamino)benzo[c][1,8]naphthyridin-6(5H)-one], the IC50 is above 100 nM.

For `O=C1CCCN1CCCNc1ccc2c(=O)[nH]c3ncccc3c2c1` [Compound 479, 9-(3-(2-Oxopyrrolidin-1-yl)propylamino)benzo[c][1,8]naphthyridin-6(5H)-one], the IC50 is above 100 nM.

For the molecule `O=C(CN1CCC(Nc2ccnc3[nH]c(=O)c4ccccc4c23)CC1)Nc1ccccn1` [Compound 483, 2-(4-(6-Oxo-5,6-dihydrobenzo[c][1,8]naphthyridin-1-ylamino)piperidin-1-yl)-N-(pyridin-2-yl)acetamide], the half-inhibitory concentration (IC50) is above 100 nM.

Turning to `O=C(CN1CCC(Nc2ccnc3[nH]c(=O)c4ccccc4c23)CC1)NC1CCCCC1` [Compound 485, N-Cyclohexyl-2-(4-(6-oxo-5,6-dihydrobenzo[c][1,8]naphthyridin-1-ylamino)piperidin-1-yl)acetamide], the IC50 was above 100 nM.

As for `O=C(CN1CCC(Nc2ccnc3[nH]c(=O)c4ccccc4c23)CC1)NC1CC1` [Compound 488, N-Cyclopropyl-2-(4-(6-oxo-5,6-dihydrobenzo[c][1,8]naphthyridin-1-ylamino)piperidin-1-yl)acetamide], the IC50 was above 100 nM.

For the molecule `O=C(Nc1ccc(Nc2ccnc3[nH]c(=O)c4ccccc4c23)cc1)C1(c2ccccc2)CCCC1` [Compound 494, N-(4-(6-Oxo-5,6-dihydrobenzo[c][1,8]naphthyridin-1-ylamino)phenyl)-1-phenylcyclopentanecarboxamide], the concentration for half-maximal inhibition (IC50) lay in the range of 11 to 100 nM.

On to `O=C(Nc1ccc(Nc2ccnc3[nH]c(=O)c4ccccc4c23)cc1)C(CC1CCCO1)C(F)(F)F` (stereo not drawn) [Compound 495, 3,3,3-Trifluoro-N-(4-(6-oxo-5,6-dihydrobenzo[c][1,8]naphthyridin-1-ylamino)phenyl)-2-((tetrahydrofuran-2-yl)methyl)propanamide], for which the IC50 was in the range of 11 to 100 nM.

As to `O=C(Nc1ccc(Nc2ccnc3[nH]c(=O)c4ccccc4c23)cc1)c1cccnc1C(F)(F)F` [Compound 498, N-(4-(6-Oxo-5,6-dihydrobenzo[c][1,8]naphthyridin-1-ylamino)phenyl)-2-(trifluoromethyl)nicotinamide], the IC50 is below 11 nM.

Consider `O=C(Nc1ccc(Nc2ccnc3[nH]c(=O)c4ccccc4c23)cc1)C1(C(F)(F)F)CCCCC1` [Compound 499, N-(4-(6-Oxo-5,6-dihydrobenzo[c][1,8]naphthyridin-1-ylamino)phenyl)-1-(trifluoromethyl)cyclohexanecarboxamide], for which the IC50 is 11 to 100 nM.

For `O=C(Nc1ccc(Nc2ccnc3[nH]c(=O)c4ccccc4c23)cc1)C1(C(F)(F)F)CCCC1` [Compound 500, N-(4-(6-Oxo-5,6-dihydrobenzo[c][1,8]naphthyridin-1-ylamino)phenyl)-1-(trifluoromethyl)cyclopentanecarboxamide], the IC50 was 11 to 100 nM.
